Test results as given in patent US11364219B2, “Methods and pharmaceutical compositions for treating microbiome dysregulations associated with circadian clock disruption” (INSERM (INSTITUT NATIONAL DE LA SANTÉ ET DE LA RECHERCHE …, priority 2016, dated 2022).

Columns and labels:
[1] = test system: Csnk2; conditions: Csnk2 inhibitors listed as examples; cited from earlier work
[2] = test system: mouse embryonic fibroblasts (MEFs); conditions: U0126 treatment, data not shown
[3] = test system: clock machinery genes; test: Microarray and qRT-PCR gene expression after apigenin administration; type: in vivo, mouse
Excerpt: (§1) Mice and reagents. The Nlrp6-3xFlag-IRES-eGFP mouse was generated at the Institut Clinique de la Souris (Illkirch, France; further details available upon request). Age- and gender-matched Nlrp6-deficient (Nlrp6−/−) and control C57BL6/J mice had free access to a standard laboratory chow diet in a half-day light cycle exposure and temperature-controlled environment. All animal studies were approved by the local investigational review board (CEEA232009R) in an accredited establishment (N° B59-108) according to governmental guidelines N° 86/609/CEE. The experimental model of colitis was performed as previously described 10. Tissue and blood sampling was performed under LD conditions, with ZTO being the start of the light period (8 a.m.) and ZT12 the vespertinal crepuscule (8 p.m.). Apigenin (750 μg/mouse; Santa Cruz) was intraperitoneally given twice a week at ZT6 for 1 or 3 weeks period.
Gene expression and microarray analysis. […] The resulting cDNA (equivalent to 5 ng of total RNA) was amplified using the SYBR Green real-time PCR kit and detected on a Stratagene Mx3005P (Agilent Technologies). […] Relative mRNA levels (2-Ct) were determined by comparing (a) the PCR cycle thresholds (Ct) for the gene of interest and Actb (ΔCt) and (b) ΔCt values for treated and control groups (ΔCt). […]

[4] = test system: DSS-induced colitis; test: DSS colitis model in wild-type mice pre-treated with apigenin; type: in vivo, mouse
Excerpt: as §1
Immunohistochemistry, Immunofluorescence and histological analysis. Intestinal tissue was fixed in formalin, dehydrated in series of increasing concentration of alcohols and toluene before being embedded in paraffin. For immunohistochemistry, 5 μm-thick tissue sections were placed on Superfrost Plus slides (Thermo Scientific), incubated for 10 min at 60° C. and rehydrated through a series of graded alcohols and distilled water. Endogenous peroxidases were blocked by 3% hydrogen peroxide for 10 min. Antigen retrieval was performed in citrate buffer (10 mM, pH 6) by steaming sections in a microwave oven for 20 min. Tissue sections were blocked with 5% BSA/PBS for 30 min at RT and primary Ab against either Ki67 (1:100, ab15580, Abcam), M2 Ab to Flag (1:100, F3165, Sigma) or cleaved caspase3 (1:50, 9661, Cell Signalling) was directly applied and incubated one hour at room temperature (RT) or overnight at 4° C. Slides were washed 3× in PBS before applying either secondary peroxidase-conjugated goat anti-rabbit IgG (1:100, Interchim) or peroxidase conjugated goat anti-mouse IgG (1:100, Interchim) Ab two hours at RT. Targeted antigens were visualized by using 3.3′-diaminobenzidine solution (BD Pharmingen) followed by nuclear counterstain with hematoxylin. Immunofluorescence staining procedure was done by incubation overnight at 4° C. of primary antibody against Lysozyme (A0099, Dako) at 1:1000 according to the protocol provided by Cell Signalling Technology. Secondary Ab (1:200, A11008, Life Technologies) was applied for 1 hour at RT followed by nuclear counterstain with DAPI. Tissue sections were covered by using ProLong® Gold Antifade reagent (Life Technologies). Microscopic analyses were performed by using the Zeiss Axioplan 2 imaging microscope, Axio Imager Z1 microscope, Axiovision software (all from Zeiss, Oberkochen, Germany), and ImageJ software. Staining of cryosections […] was performed to stain GFP on colonic tissue according to manufacturer's instructions (Cell Signaling Technology). Polyclonal rabbit anti-GFP Ab (1/1000, Molecular Probes) and monoclonal rat anti-integrin 6 Ab (1/100, BD Pharmingen) were used as primary Abs and incubated together on the samples for 3 hours at RT. Secondary AF488-coupled goat anti-rabbit Ab and AF594-coupled goat anti-rat Ab (1:500, Molecular Probes) applied for 1 hour at RT followed by counterstain with DAPI. Sections were covered with Mowiol.

[5] = test system: gut microbiota; test: 16S rRNA gene sequencing of gut microbiota, wild-type mice; type: in vivo, mouse
Excerpt: as §1
Microbiota analysis. 16S rRNA gene variable region V3 and V4 was amplified using dual indexed fusion primers, in brief primers consist of illumina linker sequence, 12 base barcode sequence and heterogeneity spacer followed by either 16S rRNA gene specific forward (319F: […]; SEQ ID NO: 1) or reverse (806R: […]; SEQ ID NO: 2) primer sequences 29. […] Amplicons quantities were normalized using SEQUALPREP™ kit (Invitrogen) and pooled as a single library. […] Sequencing reads were primarily processed for quality control using the software MOTHUR. Forward and reverse reads were assembled to form contigs, reads not having perfectly matched specific primers and barcodes, having any ambiguous base and more than 8 homopolymers were removed from downstream analysis. Sequences not aligning to desired bacterial V3-V4 variable regions, suspected chimera and likely to be of non-bacterial origin were detected and removed. […] Indicator analysis was performed to identify prominent OTUs contributing to the differences between analysed groups. Non parametric Shannon index of diversity was calculated as a measure of alpha diversity index. Statistical differences were determined by non-parametric Mann-Whitney Test.

[6] = test system: colonic IECs; test: Colonic IEC proliferation and apoptosis immunostaining (Ki67, caspase-3), wild-type mice; type: in vivo, mouse
Excerpt: as §1
(§2) Immunohistochemistry, Immunofluorescence and histological analysis. Intestinal tissue was fixed in formalin, dehydrated in series of increasing concentration of alcohols and toluene before being embedded in paraffin. For immunohistochemistry, 5 μm-thick tissue sections were placed on Superfrost Plus slides (Thermo Scientific), incubated for 10 min at 60° C. and rehydrated through a series of graded alcohols and distilled water. Endogenous peroxidases were blocked by 3% hydrogen peroxide for 10 min. […]

[7] = test system: colonic IECs; test: Colonic IEC proliferation immunostaining (Ki67), Nlrp6-deficient mice; type: in vivo, mouse; conditions: three-week regimen of apigenin
Excerpt: as §1, §2

[8] = test system: gut microbiota; test: 16S rRNA gene sequencing of gut microbiota, Nlrp6-deficient mice; type: in vivo, mouse; conditions: apigenin- versus vehicle-treated Nlrp6-deficient mice, ANOSIM p=0.283
Excerpt: as §1, with “Tissue and blood sampling was performed under LD conditions, with ZTO being the start of the light period (8 a.m.) and ZT12 the vespertinal crepuscule (8 p.m.). Apigenin (750 μg/mouse; Santa Cruz) was intraperitoneally given twice a week at ZT6 for 1 or 3 weeks period.” left out
Microbiota analysis. […] Amplicons quantities were normalized using SEQUALPREP™ kit (Invitrogen) and pooled as a single library. […] Sequencing reads were primarily processed for quality control using the software MOTHUR. Forward and reverse reads were assembled to form contigs, reads not having perfectly matched specific primers and barcodes, having any ambiguous base and more than 8 homopolymers were removed from downstream analysis. Sequences not aligning to desired bacterial V3-V4 variable regions, suspected chimera and likely to be of non-bacterial origin were detected and removed. […] Indicator analysis was performed to identify prominent OTUs contributing to the differences between analysed groups. […] Statistical differences were determined by non-parametric Mann-Whitney Test.

[9] = test system: DSS-induced colitis; test: DSS colitis model in Nlrp6-deficient mice pre-treated with apigenin; type: in vivo, mouse
Excerpt: as §1
Immunohistochemistry, Immunofluorescence and histological analysis. Intestinal tissue was fixed in formalin, dehydrated in series of increasing concentration of alcohols and toluene before being embedded in paraffin. For immunohistochemistry, 5 μm-thick tissue sections were placed on Superfrost Plus slides (Thermo Scientific), incubated for 10 min at 60° C. and rehydrated through a series of graded alcohols and distilled water. Endogenous peroxidases were blocked by 3% hydrogen peroxide for 10 min. Antigen retrieval was performed in citrate buffer (10 mM, pH 6) by steaming sections in a microwave oven for 20 min. Tissue sections were blocked with 5% BSA/PBS for 30 min at RT and primary Ab against either Ki67 (1:100, ab15580, Abcam), M2 Ab to Flag (1:100, F3165, Sigma) or cleaved caspase3 (1:50, 9661, Cell Signalling) was directly applied and incubated one hour at room temperature (RT) or overnight at 4° C. Slides were washed 3× in PBS before applying either secondary peroxidase-conjugated goat anti-rabbit IgG (1:100, Interchim) or peroxidase conjugated goat anti-mouse IgG (1:100, Interchim) Ab two hours at RT. […]

[10] = wild-type mice, DSS, apigenin administration

Which IC50 [1] does the source give for `O=C(O)c1ccc2c(c1)nc(Nc1cccc(Cl)c1)c1ccncc12` [CX-4945, 5-(3-Chloro-phenylamino)-benzo[c] [2,6] naphthyridine-8-carboxylicacid] here?
The IC50 was 2 nM.

Which IC50 [1] does the source give for `O=C(O)Cc1c2ccccc2n2c1[nH]c(=O)c1ccccc12` [IQA, 5-oxo-5,6-dihydroindolo-(1,2-a) quinazolin-7-yl acetic acid] here?
Its IC50 is 390 nM.

With `O=c1c2c(O)cccc2oc2c([N+](=O)[O-])ccc(O)c12` [MNX, 1,8-dihydroxy-4-nitro-xanthen-9-one] as the compound, how does the Ki [1] read?
Its Ki is 800 nM.

For `O=C(O)/C=C/c1cc(Br)c(Br)c(Br)c1Br` [TBCA, (E)-3-(2,3,4,5-tetrabromophenyl)acrylic acid], which Ki [1] is on record?
The Ki was 77 nM.

With `Brc1c(Br)c(Br)c2[nH]cnc2c1Br` [TBI, 4,5,6,7-1H-tetrabromobenzimidazole] as the compound, how does the Ki [1] read?
Its Ki is 300 nM.

For `CC(C(=O)O)N1C(=O)c2c(I)c(I)c(I)c(I)c2C1=O` (stereo not shown) [TID46, 2-(4,5,6,7-tetraiodo-1,3-dioxo-1,3-dihydro-2Hisoindol-2-yl)propanoic acid], which IC50 [1] is on record?
The IC50 was 150 nM.

With `N#CC(=C(/N)Sc1ccccc1N)/C(C#N)=C(\N)Sc1ccccc1N` [U0126] as the compound, how does the “growth rate of treated wild-type MEFs versus similarly treated Nlrp6-deficient MEFs” value [2] read?
The value was “comparable”.

Which results are given for `O=c1cc(-c2ccc(O)cc2)oc2cc(O)cc(O)c12` [apigenin, 4′,5,7-trihydroxyflavone]?
colonic transcript levels of several clock machinery genes (qRT-PCR) ([3]; apigenin administration, through Nlrp6): significantly influenced; genes differentially expressed (microarray) ([3]; wild-type mice, Logfc of 1.5, upon apigenin administration): 54; anti-inflammatory effect ([4]; mice housed in darkness for three circadian cycles during DSS exposure): no anti-inflammatory effect; body-weight loss ([4]; wild-type mice on LD cycles, apigenin 3 weeks (750 μg/mouse, twice a week) before 2% DSS): less severe body-weight loss; colon length [4, 10]: greater colon length; disease-activity index [4, 10]: lower disease-activity index; infiltration of inflammatory cells (H&E-stained colon sections) ([4]; wild-type mice, DSS, versus controls): reduced infiltration of inflammatory cells; Clostridium sensu stricto and unclassified Ruminococcacceae ([5]; apigenin treatment in wild-type mice): reduction; genera derived from Bacteroidetes (Alistipes, Parasatuerlla, Bacteroides) ([5]; apigenin-induced changes among bacterial OTUs): expansion; gut microbiota composition versus controls ([5]; apigenin-treated wild-type mice, ANOSIM on Jaccard distances, p=0.015): markedly different; number of caspase-3 positive IECs ([6]; three-week regimen of apigenin): without any change; IEC proliferation (Ki67 Ab staining) ([6]; three-week regimen of apigenin (750 μg/mouse, twice a week)): lowered IEC proliferation; anti-proliferative effect (Ki67) [7]: abrogated; global changes in the composition of the gut microbiota [8]: failed to observe global changes; wasting disease (body weight loss) ([9]; apigenin 3 weeks before 2% DSS): failed to improve wasting disease; colon length ([9]; apigenin, DSS): did not alter colon length; inflammation in histological analysis ([9]; apigenin, DSS): had no effect on inflammation

Which IC50 [1] does the source give for `Cc1ccc2c(c1S(=O)(=O)O)SC(c1ccc3c(c1)SC(c1ccc(N(C)C)cc1)N3C)N2C` (stereo not shown) [compound 1, 2′-(4-Dimethylamino-phenyl)-3,6,3′-trimethyl-[2,6′]bibenzothiazolyl-7-sulfonic acid] here?
Its IC50 is 500 nM.

With `O=C(O)c1c[nH]c2c(Cl)cc(Cl)c(Cl)c2c1=O` [compound 7, 5,6,8-trichloro-4-oxo-1,4-dihydroquinoline-3-carboxylic acid] as the compound, how does the Ki [1] read?
Its Ki is 60 nM.

Which IC50 [1] does the source give for `O=C(O)/C=C/c1ccc[c]([Sb](=[O])([OH])[OH])c1` [compound 10, (E)-3-(3-stibonophenyl)prop-2-enoic acid] here?
The IC50 was 150 nM.

For `O=C(O)c1cc(Br)c(Br)c(Br)c1` [compound 26, 3,4,5 tribromobenzoic acid], which IC50 [1] is on record?
Its IC50 is 640 nM.

With `O=C(O)c1c(Br)c(Br)c(Br)c(Br)c1-c1c2ccc(=O)cc-2oc2cc(O)ccc12` [compound 35, 2,3,4,5-tetrabromo-6-(6-hydroxy-3-oxo-3H-xanthen-9-yl)-benzoic acid] as the compound, how does the IC50 [1] read?
Its IC50 is 80 nM.

With `Cc1cc(O)c2c(c1)C(=O)c1cc(O)cc(O)c1C2=O` [emodin, 6-methyl-1,3,8-trihydroxyanthraquinone] as the compound, how does the Ki [1] read?
The Ki was 1500 nM.

With `O=C1C=C2CC3(O)COc4c(ccc(O)c4O)C3=C2C=C1O` (stereo not shown) [hematein, 3,4,6a,10-tetrahydroxy-6,7-dihydroindeno[2,1-c] chromen-9-one] as the compound, how does the IC50 [1] read?
Its IC50 is 550 nM.
